US12037340B2, “Pentacyclic derivatives as Zika virus inhibitors” (Gilead Sciences, Inc., priority 2021, dated 2024)

system: ZIKV; assay: microbe, parasite or virus in culture; format: cell-based, Zika virus; details: 48 hrs

Compound	EC50
methyl ((2S,3S)-1-((S)-6-(4-chloro-5-(2-((S)-5-((methoxycarbonyl)-L-isoleucyl)-5-azaspiro[2.4]heptan-6-yl)-1-dihydroisochromeno[4′,3′:6,7]naphtho[1,2-d]imidazol-9-yl)-1H-imidazol-2-yl)-5-azaspiro[2.4]heptan-5-yl)-3-methyl-1-oxopentan-2-yl)carbamate [Compound 3]	18.6 nM
COC(=O)N[C@H](C(=O)N1[C@H](c2nc(Cl)c(-c3ccc4c(c3)COc3cc5c(ccc6nc([C@@H]7C[C@@H]8CCC[C@@H]8N7C(=O)[C@@H](NC(=O)OC)C7C[C@@H](C)O[C@H](C)C7)[nH]c65)cc3-4)[nH]2)C[C@@H]2CCC[C@@H]21)C1C[C@@H](C)O[C@H](C)C1 (stereo partly drawn) [Compound 36, methyl ((S)-2-((2S,3aS,6aS)-2-(4-chloro-5-(2-((2S,3aS,6aS)-1-((S)-2-((2R,6R)-2,6-dimethyltetrahydro-2H-pyran-4-yl)-2-((methoxycarbonyl)amino)acetyl)octahydrocyclopenta[b]pyrrol-2-yl)-1,11-dihydroisochromeno[4′,3′:6,7]naphtho[1,2-d]imidazol-9-yl)-1H-imidazol-2-yl)hexahydrocyclopenta[b]pyrrol-l(2H)-yl)-1-((2R,6R)-2,6-dimethyltetrahydro-2H-pyran-4-yl)-2-oxoethyl)carbamate]	46.9 nM

same assay, conditions: Zika virus, Huh-7; 48 hrs

Compound	EC50
COC[C@H]1C[C@@H](c2nc(C#N)c(-c3ccc4c(c3)COc3cc5c(ccc6nc([C@@H]7CC[C@H](C)N7C(=O)[C@@H](NC(=O)OC)C(C)C)[nH]c65)cc3-4)[nH]2)N(C(=O)[C@@H](NC(=O)OC)C(C)C)C1 [Compound 13, methyl ((S)-1-((2S,5S)-2-(9-(4-cyano-2-((2S,4S)-1-((methoxycarbonyl)-L-valyl)-4-(methoxymethyl)pyrrolidin-2-yl)-1H-imidazol-5-yl)-1,11-dihydroisochromeno[4′,3′:6,7]naphtho[1,2-d]imidazol-2-yl)-5-methylpyrrolidin-1-yl)-3-methyl-1-oxobutan-2-yl)carbamate]	51.6 nM
COC(=O)N[C@H](C(=O)N1CCC[C@H]1c1nc(Cl)c(-c2ccc3c(c2)COc2cc4c(ccc5nc([C@@H]6CCCN6C(=O)[C@@H](NC(=O)OC)C(C)C)[nH]c54)cc2-3)[nH]1)C(C)C [Compound 26, methyl ((S)-1-((S)-2-(4-chloro-5-(2-((S)-1-((methoxycarbonyl)-L-valyl)pyrrolidin-2-yl)-1,11-dihydroisochromeno[4′,3′:6,7]naphtho[1,2-d]imidazol-9-yl)-1H-imidazol-2-yl)pyrrolidin-1-yl)-3-methyl-1-oxobutan-2-yl)carbamate]	85.4 nM
COC(=O)N[C@H](C(=O)N1[C@@H](C)CC[C@H]1c1nc(C2CC2)c(-c2ccc3c(c2)COc2cc4c(ccc5nc([C@@H]6CC[C@H](C)N6C(=O)[C@@H](NC(=O)OC)C(C)(C)CF)[nH]c54)cc2-3)[nH]1)C(C)(C)CF [Compound 42, methyl ((S)-1-((2S,5S)-2-(4-cyclopropyl-5-(2-((2S,5S)-1-((S)-4-fluoro-2-((methoxycarbonyl)amino)-3,3-dimethylbutanoyl)-5-methylpyrrolidin-2-yl)-1,11-dihydroisochromeno[4′,3′:6,7]naphtho[1,2-d]imidazol-9-yl)-1H-imidazol-2-yl)-5-methylpyrrolidin-1-yl)-4-fluoro-3,3-dimethyl-1-oxobutan-2-yl)carbamate]	21.4 nM
COC[C@H]1C[C@@H](c2nc(Cl)c(-c3ccc4c(c3)COc3cc5c(ccc6nc([C@@H]7CC[C@H](C)N7C(=O)[C@@H](NC(=O)OC)C(C)C)[nH]c65)cc3-4)[nH]2)N(C(=O)[C@@H](NC(=O)OC)C2CCOCC2)C1 [Compound 6, methyl ((S)-1-((2S,5S)-2-(9-(4-chloro-2-((2S,4S)-1-((S)-2-((methoxycarbonyl)amino)-2-(tetrahydro-2H-pyran-4-yl)acetyl)-4-(methoxymethyl)pyrrolidin-2-yl)-1H-imidazol-5-yl)-1,11-dihydroisochromeno[4′,3′:6,7]naphtho[1,2-d]imidazol-2-yl)-5-methylpyrrolidin-1-yl)-3-methyl-1-oxobutan-2-yl)carbamate]	133 nM
CC[C@H](C)[C@H](NC(=O)OC)C(=O)N1[C@@H](C)CC[C@H]1c1nc(C(C)C)c(-c2ccc3c(c2)COc2cc4c(ccc5nc([C@@H]6CC[C@H](C)N6C(=O)[C@@H](NC(=O)OC)[C@@H](C)CC)[nH]c54)cc2-3)[nH]1 [Compound 44, methyl ((2S,3S)-1-((2S,5S)-2-(4-isopropyl-5-(2-((2S,5S)-1-((methoxycarbonyl)-L-isoleucyl)-5-methylpyrrolidin-2-yl)-1,11-dihydroisochromeno[4′,3′:6,7]naphtho[1,2-d]imidazol-9-yl)-1H-imidazol-2-yl)-5-methylpyrrolidin-1-yl)-3-methyl-1-oxopentan-2-yl)carbamate]	11.5 nM
COC(=O)N[C@H](C(=O)N1[C@@H](C)CC[C@H]1c1nc(Cl)c(-c2ccc3c(c2)COc2cc4c(ccc5nc([C@@H]6CC[C@H](C)N6C(=O)[C@@H](NC(=O)OC)C(C)(C)C)[nH]c54)cc2-3)[nH]1)C(C)(C)C [Compound 23, methyl ((S)-1-((2S,5S)-2-(4-chloro-5-(2-((2S,5S)-1-((S)-2-((methoxycarbonyl)amino)-3,3-dimethylbutanoyl)-5-methylpyrrolidin-2-yl)-1,11-dihydroisochromeno[4′,3′:6,7]naphtho[1,2-d]imidazol-9-yl)-1H-imidazol-2-yl)-5-methylpyrrolidin-1-yl)-3,3-dimethyl-1-oxobutan-2-yl)carbamate]	9.4 nM
COC[C@H]1C[C@@H](c2nc(Br)c(-c3ccc4c(c3)COc3cc5c(ccc6nc([C@@H]7CC[C@H](C)N7C(=O)[C@@H](NC(=O)OC)C(C)C)[nH]c65)cc3-4)[nH]2)N(C(=O)[C@@H](NC(=O)OC)C(C)C)C1 [Compound 8, methyl ((S)-1-((2S,5S)-2-(9-(4-bromo-2-((2S,4S)-1-((methoxycarbonyl)-L-valyl)-4-(methoxymethyl)pyrrolidin-2-yl)-1H-imidazol-5-yl)-1,11-dihydroisochromeno[4′,3′:6,7]naphtho[1,2-d]imidazol-2-yl)-5-methylpyrrolidin-1-yl)-3-methyl-1-oxobutan-2-yl)carbamate]	24.1 nM
COC[C@H]1C[C@@H](c2nc(Cl)c(-c3ccc4c(c3)COc3cc5c(ccc6nc([C@@H]7CC[C@H](C)N7C(=O)[C@@H](NC(=O)OC)C(C)C)[nH]c65)cc3-4)[nH]2)N(C(=O)[C@@H](NC(=O)OC)[C@@H](C)OC)C1 [Compound 5, methyl ((S)-1-((2S,5S)-2-(9-(4-chloro-2-((2S,4S)-1-(N-(methoxycarbonyl)-O-methyl-L-threonyl)-4-(methoxymethyl)pyrrolidin-2-yl)-1H-imidazol-5-yl)-1,11-dihydroisochromeno[4′,3′:6,7]naphtho[1,2-d]imidazol-2-yl)-5-methylpyrrolidin-1-yl)-3-methyl-1-oxobutan-2-yl)carbamate]	124 nM
CC[C@H](C)[C@H](NC(=O)OC)C(=O)N1[C@@H](C)CC[C@H]1c1nc(C2CC2)c(-c2ccc3c(c2)COc2cc4c(ccc5nc([C@@H]6CC[C@H](C)N6C(=O)[C@@H](NC(=O)OC)[C@@H](C)CC)[nH]c54)cc2-3)[nH]1 [Compound 39, methyl ((2S,3S)-1-((2S,5S)-2-(4-cyclopropyl-5-(2-((2S,5S)-1-((methoxycarbonyl)-L-isoleucyl)-5-methylpyrrolidin-2-yl)-1,11-dihydroisochromeno[4′,3′:6,7]naphtho[1,2-d]imidazol-9-yl)-1H-imidazol-2-yl)-5-methylpyrrolidin-1-yl)-3-methyl-1-oxopentan-2-yl)carbamate]	17.2 nM
CC[C@@H](C)[C@H](NC(=O)OC)C(=O)N1[C@@H](C)CC[C@H]1c1nc(C(C)C)c(-c2ccc3c(c2)COc2cc4c(ccc5nc([C@@H]6CC[C@H](C)N6C(=O)[C@@H](NC(=O)OC)[C@H](C)CC)[nH]c54)cc2-3)[nH]1 [Compound 46, methyl ((2S,3R)-1-((2S,5S)-2-(4-isopropyl-5-(2-((2S,5S)-1-((methoxycarbonyl)-L-alloisoleucyl)-5-methylpyrrolidin-2-yl)-1,11-dihydroisochromeno[4′,3′:6,7]naphtho[1,2-d]imidazol-9-yl)-1H-imidazol-2-yl)-5-methylpyrrolidin-1-yl)-3-methyl-1-oxopentan-2-yl)carbamate]	26.7 nM
CC[C@H](C)[C@H](NC(=O)OC)C(=O)N1CCC[C@H]1c1nc(Cl)c(-c2ccc3c(c2)COc2cc4c(ccc5nc([C@@H]6CCCN6C(=O)[C@@H](NC(=O)OC)[C@@H](C)CC)[nH]c54)cc2-3)[nH]1 [Compound 27, methyl ((2S,3S)-1-((S)-2-(4-chloro-5-(2-((S)-1-((methoxycarbonyl)-L-isoleucyl)pyrrolidin-2-yl)-1,11-dihydroisochromeno[4′,3′:6,7]naphtho[1,2-d]imidazol-9-yl)-1H-imidazol-2-yl)pyrrolidin-1-yl)-3-methyl-1-oxopentan-2-yl)carbamate]	15.3 nM
CC[C@H](C)[C@H](NC(=O)OC)C(=O)N1C[C@@H](COC)C[C@H]1c1nc(C#N)c(-c2ccc3c(c2)COc2cc4c(ccc5nc([C@@H]6CC[C@H](C)N6C(=O)[C@@H](NC(=O)OC)C(C)C)[nH]c54)cc2-3)[nH]1 [Compound 16, methyl ((S)-1-((2S,5S)-2-(9-(4-cyano-2-((2S,4S)-1-((methoxycarbonyl)-L-isoleucyl)-4-(methoxymethyl)pyrrolidin-2-yl)-1H-imidazol-5-yl)-1,11-dihydroisochromeno[4′,3′:6,7]naphtho[1,2-d]imidazol-2-yl)-5-methylpyrrolidin-1-yl)-3-methyl-1-oxobutan-2-yl)carbamate]	43.4 nM
COC(=O)N[C@H](C(=O)N1[C@@H](C)CC[C@H]1c1nc(Br)c(-c2ccc3c(c2)COc2cc4c(ccc5nc([C@@H]6CC[C@H](C)N6C(=O)[C@@H](NC(=O)OC)C(C)C)[nH]c54)cc2-3)[nH]1)C(C)C [Compound 31, methyl ((S)-1-((2S,5S)-2-(4-bromo-5-(2-((2S,5S)-1-((methoxycarbonyl)-L-valyl)-5-methylpyrrolidin-2-yl)-1,11-dihydroisochromeno[4′,3′:6,7]naphtho[1,2-d]imidazol-9-yl)-1H-imidazol-2-yl)-5-methylpyrrolidin-1-yl)-3-methyl-1-oxobutan-2-yl)carbamate]	8.5 nM
